Assay results: patent US20250114342A1, “APIXABAN ORAL LIQUID DOSAGE FORMS” (Shilpa Medicare Limited, priority 2023, published 2025)
Read-outs that look alike come from different tables or passages of the source.

How the values were obtained:
[1] = Drug-excipients compatibility study (thermal stability); format: physicochemical
Protocol: Amounts of apixaban and other components identified here were determined chromatographically, e.g., High Performance Liquid Chromatograph (HPLC). Amounts of apixaban related substances identified here were also determined chromatographically, e.g., High Performance Liquid Chromatograph (HPLC).

[2] = cited from earlier work

Any individual unspecified impurity ([1]; 15 Days 60° C. Close Vial): 0.03 % w/w | Related substances: Acid Impurity ([1]; 15 Days 60° C. Close Vial): 0.02 % w/w | Total impurities ([1]; 15 Days 60° C. Close Vial): 0.07 % w/w | Any individual unspecified impurity ([1]; 30 Days 25° C. Close Vial): 0.03 % w/w | Related substances: Acid Impurity ([1]; 30 Days 25° C. Close Vial): 0.01 % w/w | Total impurities ([1]; 30 Days 25° C. Close Vial): 0.07 % w/w | Any individual unspecified impurity ([1]; 30 Days 25° C. Open Vial): 0.02 % w/w | Related substances: Acid Impurity ([1]; 30 Days 25° C. Open Vial): 0.02 % w/w | Total impurities ([1]; 30 Days 25° C. Open Vial): 0.07 % w/w | Any individual unspecified impurity ([1]; 30 Days 40° C. Close Vial): 0.03 % w/w | Related substances: Acid Impurity ([1]; 30 Days 40° C. Close Vial): 0.02 % w/w | Total impurities ([1]; 30 Days 40° C. Close Vial): 0.09 % w/w | Any individual unspecified impurity ([1]; 30 Days 40° C. Open Vial): 0.03 % w/w | Related substances: Acid Impurity ([1]; 30 Days 40° C. Open Vial): 0.02 % w/w | Total impurities ([1]; 30 Days 40° C. Open Vial): 0.09 % w/w | Any individual unspecified impurity ([1]; Initial): 0.02 % w/w | Related substances: Acid Impurity ([1]; Initial): 0.01 % w/w | Total impurities ([1]; Initial): 0.06 % w/w
Compound: COc1ccc(-n2nc(C(N)=O)c3c2C(=O)N(c2ccc(N4CCCCC4=O)cc2)CC3)cc1 [apixaban, 1-(4-methoxyphenyl)-7-oxo-6-[4-(2-oxopiperidin-1-yl)phenyl]-4,5,6,7-tetrahydro-1H-pyrazolo[3,4-c]pyridine-3-carboxamide]
solubility ([2]; 2 mg of apixaban, 100% propylene glycol, 20° C.): partially soluble | solubility ([2]; higher amount of apixaban, 40% propylene glycol+60% glycerol, 20° C.): insoluble | solubility ([2]; higher amount of apixaban, 40% propylene glycol+60% glycerol, 40° C.): gets dissolved
